Reference: patent US20230003716A1, “METHODS AND APPARATUSES FOR PATIENT-DERIVED MICROORGANOSPHERES” (Xilis, Inc., priority 2020, published 2023)
Read-outs that look alike come from different tables or passages of the source.

What was measured:
[1] = tested on: PDX240 cells (colorectal cancer patient derived xenograft); experiment: drug response curves, traditional (bulk) organoids versus Micro-Organospheres, PDX240; format: cell-based, human; settings: cell viabilities after 3 days of treatment
Excerpt: In some variations, the Micro-Organospheres may be formed from cell lines grown as part of a Patient Derived Xenograft (PDX). For example, FIGS. 28A-28D illustrate Micro-Organospheres formed from cultured PDX240 cells. PDX240 cells are a Patient Derived Xenograft (PDX) tumor cell line (numbered 240 based on patient source) that were human tumors grown in immunodeficient mice (PDX) to form in vivo tumors. The xenograft tissue was extracted dissociated, and used to form Micro-Organospheres as described above. In this example a single cell was included in each Micro-Organospheres as it was formed. […] With progressive time in culture, at least some of the Micro-Organospheres show the cells dividing and forming structures.
(§1) Organoids were formed from Patient Derived Xenograft cells (including the PDX240 cells described above and a second PDX cell line, PDX19187) and were compared with Micro-Organospheres formed using the same cells. The organoids were formed using conventional techniques in which a large mass of […] in a well or dish was seeded with cells and cultured until growth was confirmed. Micro-Organospheres were generated from the traditional organoids.
(§2) Both traditional (“bulk”) organoids and the Micro-Organospheres were then treated with the same drugs (e.g., Oxaliplatin or SN38) and cell viabilities were measured after 3 days of treatment.

patient tumor = experiment: actual response of the patient's tumor to drug treatment; format: in vivo, human; settings: for patient response to treatment: Example 3, treated with both Oxaliplatin and Irinotecan, after 6 months of treatment
[2] = tested on: Patient-Derived Micro-Organospheres (tumor biopsy); experiment: drug effect screen on Patient-Derived Micro-Organospheres from a patient tumor biopsy; format: cell-based, human; settings: for percent survival of the Micro-Organospheres in the presence of the drug: Example 3, FIGS. 23B-23C, predicts drug resistance
Excerpt: The Patient-Derived Micro-Organospheres described herein may be used in a variety of different assays, and in particular may be used to determine drug formulation effects, including toxicity, on normal and/or abnormal (e.g., cancerous) tissue. For example, drug screening may include applying Micro-Organospheres into all or some wells of multi-well (e.g., a 96-well) plate. Alternatively custom plates may be used (e.g., a 10,000 micro-well array may be formed of a 100×100 wells). The Micro-Organospheres (e.g., gel droplets) may be applied into, or in some variations onto the multiple microwell arrays and incubated with culture medium. The Micro-Organospheres may be cultured over the course of 3-5 days. In some variations, on day 5, the wells (e.g., micro-reactors) may then be dosed with drug compounds, e.g., based on a set of FDA-approved anticancer drugs, to examine the effects of the drug panel. For example, the drugs texted may be based on the National Cancer Institute (Division of Cancer Treatment and Diagnosis (11)) screen, consisting of 147 agents intended to enable cancer research, drug discovery and combination drug studies. On Day 7, the Micro-Organospheres may be imaged via standard fluorescent microscopy and ranked based on drug response.
In this example, the screening assay may be automated. This may enable repeatable and automated workflow, which may increase the number of drugs screened from a few to hundreds. FIGS. 17A-17E illustrate one example of this workflow. In FIG. 17A, a tumor biopsy is taken and a plurality (e.g., >10,000) Micro-Organospheres are formed as described above (in FIG. 17A the junction region forming the Micro-Organospheres is illustrated).
In a similar set of experiments, Micro-Organospheres were generated from biopsy material (FIG. 23A), and a drug effect screen was performed using the resulting Micro-Organospheres. […] Thus, the Micro-Organospheres correlated strongly with patient response to the standard of care drugs. […]

[3] = tested on: PDX19187 cells (colorectal cancer); format: cell-based, human; settings: cell viabilities after 3 days of treatment
Method: as §1, §2

traditional cell line = experiment: traditional (2D) tumor cell line drug assay; format: cell-based; settings: FIG. 22A; all dose ranges examined; predicts drug resistance
Excerpt: As mentioned above, the Patient-Derived Micro-Organospheres and methods of using them to screen for drug compositions may be used to accurately predict the response of a patient tumor to one or more drug therapies. […] For example, in FIG. 22A-22D, the Micro-Organospheres, but not a cell line, was able to correlate with patient response.

SMILES: O=c1[nH]cc(F)c(=O)[nH]1 [5-FU, Fluorouracil]
- drug response curve (cell viability), bulk organoids compared with Micro-Organospheres [1]: comparable responses

SMILES: CCc1c2c(nc3ccc(OC(=O)N4CCC(N5CCCCC5)CC4)cc13)-c1cc3c(c(=O)n1C2)COC(=O)[C@]3(O)CC [Irinotecan]
- patient response to treatment (patient tumor): no response
- percent survival of the Micro-Organospheres in the presence of the drug [2]: lack of effect

SMILES: O=C1[O][Pt]2([NH][C@@H]3CCCC[C@H]3[NH]2)[O]C1=O [Oxaliplatin]
- tumor response of the patient to treatment (patient tumor; Example 2, FIGS. 22C (before) and 22D (post treatment)): responded to treatment
- patient response to treatment (patient tumor): no response
- drug response curve (cell viability), bulk organoids compared with Micro-Organospheres ([3]; listed as Oxalipalatin): comparable response
- drug effect on traditional cell line (traditional cell line): no effect
- cell survival of tumor Micro-Organospheres ([2]; Example 2, FIG. 22B, predicts drug sensitivity): significant decreases in cell survival
- percent survival of the Micro-Organospheres in the presence of the drug [2]: no change in the percent survival

SMILES: CCc1c2c(nc3ccc(O)cc13)-c1cc3c(c(=O)n1C2)COC(=O)[C@]3(O)CC [SN38, 7-Ethyl-10-hydroxy-camptothecin]
- drug response curve (cell viability), bulk organoids compared with Micro-Organospheres [1]: comparable responses
- drug response curve (cell viability), bulk organoids compared with Micro-Organospheres [3]: comparable responses
